The test deals with h12/15-LOX (Homo sapiens (Human), UniProt P16050). Briefly: 12/15-LOX enzyme inhibition IC50 assay (Examples 1 and 2). The format is biochemical. The note with it: for Emax: h12/15-LOX, read-out: Max % inhibition. As for the experimental part:
Enzyme was then added to the cuvettes. […] The % inhibition for each test compound concentration were calculated as follows: […]

Structures can show the parent of a compound that is named as a salt.

Sequence of h12/15-LOX (P16050 whole entry): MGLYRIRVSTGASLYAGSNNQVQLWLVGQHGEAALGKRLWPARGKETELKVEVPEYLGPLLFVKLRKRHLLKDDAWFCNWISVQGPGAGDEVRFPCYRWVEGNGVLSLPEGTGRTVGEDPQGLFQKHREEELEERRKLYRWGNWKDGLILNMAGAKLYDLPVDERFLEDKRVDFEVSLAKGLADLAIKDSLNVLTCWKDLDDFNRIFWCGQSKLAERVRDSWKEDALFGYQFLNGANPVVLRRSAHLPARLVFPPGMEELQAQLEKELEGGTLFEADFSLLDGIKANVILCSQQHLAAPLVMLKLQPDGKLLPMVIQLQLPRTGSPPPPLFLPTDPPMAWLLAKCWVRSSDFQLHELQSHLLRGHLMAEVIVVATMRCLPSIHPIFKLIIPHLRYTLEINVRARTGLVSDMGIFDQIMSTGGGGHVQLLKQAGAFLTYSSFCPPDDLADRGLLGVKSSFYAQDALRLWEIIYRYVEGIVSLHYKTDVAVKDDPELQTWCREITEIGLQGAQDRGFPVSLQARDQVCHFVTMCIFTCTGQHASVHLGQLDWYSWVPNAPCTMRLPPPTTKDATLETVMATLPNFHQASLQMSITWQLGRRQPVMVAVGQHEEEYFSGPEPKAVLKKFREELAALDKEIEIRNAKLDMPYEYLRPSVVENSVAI

By IC50 is commonly meant the concentration that inhibits the measured activity by half. `CN(C)CCCOC(=O)Nc1oc(-c2cc(Cl)cc(Cl)c2Cl)nc1C#N` [Compound 57, 3-(dimethylamino) propyl (4-cyano-2-(2,3,5-trichlorophenyl)oxazol-5-yl) carbamate hydrochloride] returned an IC50 of over 20 µM.

For `COCCOC(=O)Nc1oc(-c2cc(Cl)cc(Cl)c2Cl)nc1C#N` [Compound 58, 2-Methoxyethyl (4-cyano-2-(2,3,5-trichlorophenyl)oxazol-5-yl)carbamate], the IC50 was over 20 µM.

As for `CN(C)CCOC(=O)Nc1oc(-c2cc(Cl)cc(Cl)c2Cl)nc1C#N` [Compound 59, 2-(Dimethylamino)ethyl (4-cyano-2-(2,3,5-trichlorophenyl)oxazol-5-yl)carbamate hydrochloride], the IC50 was over 20 µM.

Regarding `COCCOCCOC(=O)Nc1oc(-c2cc(Cl)cc(Cl)c2Cl)nc1C#N` [Compound 60, 2-(2-Methoxyethoxy)ethyl (4-cyano-2-(2,3,5-trichlorophenyl)oxazol-5-yl)carbamate], the IC50 was over 20 µM.

Molecule `CN(C)CCCCCC(=O)N(C)c1oc(-c2cc(Cl)cc(Cl)c2Cl)nc1C#N` [Compound 61, N-(4-cyano-2-(2,3,5-trichlorophenyl)oxazol-5-yl)-6-(dimethylamino)-N-methylhexanamide hydrochloride] registered an IC50 of over 20 µM.

On to `CN(C)CCCCC(=O)N(C)c1oc(-c2cc(Cl)cc(Cl)c2Cl)nc1C#N` [Compound 62, N-(4-Cyano-2-(2,3,5-trichlorophenyl)oxazol-5-yl)-5-(dimethylamino)-N-methylpentanamide hydrochloride], for which the IC50 stood at 8.3 µM and the Emax turned out to be 100%.

`CN(C)CCCCCC(=O)Nc1oc(-c2cc(Cl)cc(Cl)c2Cl)nc1C#N` [Compound 63, N-(4-cyano-2-(2,3,5-trichlorophenyl)oxazol-5-yl)-6-(dimethylamino) hexanamide hydrochloride] showed an IC50 of over 20 µM.

For `CN(C)CCCCC(=O)Nc1oc(-c2cc(Cl)cc(Cl)c2Cl)nc1C#N` [Compound 64, N-(4-Cyano-2-(2,3,5-trichlorophenyl)oxazol-5-yl)-5-(dimethylamino)pentanamide hydrochloride], the IC50 was over 20 µM.

The molecule `CN(C)CCCC(=O)Nc1oc(-c2cc(Cl)cc(Cl)c2Cl)nc1C#N` [Compound 65, N-(4-Cyano-2-(2,3,5-trichlorophenyl)oxazol-5-yl)-4-(dimethylamino)butanamide hydrochloride] showed a half-maximal inhibitory concentration (IC50) of over 20 µM.

As for `CN(C)CCCNC(=O)N(C)c1oc(-c2cc(Cl)cc(Cl)c2Cl)nc1C#N` [Compound 66, 1-(4-cyano-2-(2,3,5-trichlorophenyl)oxazol-5-yl)-3-(3-(dimethylamino)propyl)-1-methylurea hydrochloride], the IC50 was over 20 µM.

`CN(C)CCCNC(=O)Nc1oc(-c2cc(Cl)cc(Cl)c2Cl)nc1C#N` [Compound 67, 1-(4-cyano-2-(2,3,5-trichlorophenyl)oxazol-5-yl)-3-(3-(dimethylamino)propyl) urea hydrochloride] registered an IC50 of over 20 µM.

With `CN(c1oc(-c2cc(Cl)cc(Cl)c2Cl)nc1C#N)P(=O)(O)O` [Compound 68, (4-cyano-2-(2,3,5-trichlorophenyl)oxazol-5-yl)(methyl)phosphoramidic acid], the IC50 was over 20 µM.

On to `CCOCCOCCNc1oc(-c2cc(Cl)cc(Cl)c2Cl)nc1C#N` [Compound 69, 5-((2-(2-Ethoxyethoxy)ethyl)amino)-2-(2,3,5-trichlorophenyl)oxazole-4-carbonitrile], for which the IC50 worked out at 0.33 µM and the Emax turned out to be 100%.

On to `N#Cc1nc(-c2cc(Cl)cc(Cl)c2Cl)oc1NCCOCCOCCF` [Compound 70, 5-((2-(2-(2-Fluoroethoxy)ethoxy)ethyl)amino)-2-(2,3,5-trichlorophenyl)oxazole-4-carbonitrile], for which the IC50 was determined as 1.1 µM and the Emax came to 110%.

As for `N#Cc1nc(-c2cc(Cl)cc(Cl)c2Cl)oc1NCCOCCOCC(F)(F)F` [Compound 71, 2-(2,3,5-Trichlorophenyl)-5-((2-(2-(2,2,2-trifluoroethoxy)ethoxy)ethyl)amino)oxazole-4-carbonitrile], the IC50 was 0.16 µM and the Emax was 95%.

The molecule `N#Cc1nc(-c2cc(Cl)cc(Cl)c2Cl)oc1NCCOCCN1CC(F)(F)C1` [Compound 72, 5-((2-(2-(3,3-Difluoroazetidin-1-yl)ethoxy)ethyl)amino)-2-(2,3,5-trichlorophenyl)oxazole-4-carbonitrile] showed an IC50 of over 20 µM.

Turning to `CN(CCOCCNc1oc(-c2cc(Cl)cc(Cl)c2Cl)nc1C#N)CC(F)(F)F` [Compound 73, 5-((2-(2-(Methyl(2,2,2-trifluoroethyl)amino)ethoxy)ethyl)amino)-2-(2,3,5-trichlorophenyl)oxazole-4-carbonitrile], inhibition was half-maximal at 0.47 µM (IC50) and the Emax stood at 70%.

`N#Cc1nc(-c2cc(Cl)cc(Cl)c2Cl)oc1NCCOCCN1CCCC(F)C1` (stereo not shown) [Compound 74, 5-((2-(2-(3-Fluoropiperidin-1-yl)ethoxy)ethyl)amino)-2-(2,3,5-trichlorophenyl)oxazole-4-carbonitrile] came in with an IC50 of over 20 µM.

`N#Cc1nc(-c2cc(Cl)cc(Cl)c2Cl)oc1NCCOCCN1CCCC(F)(F)C1` [Compound 75, 5-((2-(2-(3,3-Difluoropiperidin-1-yl)ethoxy)ethyl)amino)-2-(2,3,5-trichlorophenyl)oxazole-4-carbonitrile]: 1.1 µM corresponded to half-maximal inhibition (IC50) and the Emax is 61%.

In the case of `N#Cc1nc(-c2cc(Cl)cc(Cl)c2Cl)oc1NCCOCCOc1cccnc1` [Compound 76, 5-((2-(2-(Pyridin-3-yloxy)ethoxy)ethyl)amino)-2-(2,3,5-trichlorophenyl)oxazole-4-carbonitrile], the IC50 worked out at 0.25 µM and the Emax was determined as 74%.

Consider `N#Cc1nc(-c2cc(Cl)cc(Cl)c2Cl)oc1NCCOCCN1CC(F)C1` [Compound 77, 5-((2-(2-(3-Fluoroazetidin-1-yl)ethoxy)ethyl)amino)-2-(2,3,5-trichlorophenyl)oxazole-4-carbonitrile], for which the IC50 is over 20 µM.

Turning to `N#Cc1nc(-c2cc(Cl)cc(Cl)c2Cl)oc1NCCOCCN1CCC(F)C1` (stereo not shown) [Compound 78, 5-((2-(2-(3-Fluoropyrrolidin-1-yl)ethoxy)ethyl)amino)-2-(2,3,5-trichlorophenyl)oxazole-4-carbonitrile], the IC50 was over 20 µM and the Emax stood at 49%.

In the case of `N#Cc1nc(-c2cc(Cl)cc(Cl)c2Cl)oc1NCCOCCOc1cccnn1` [Compound 79, 5-((2-(2-(Pyridazin-3-yloxy)ethoxy)ethyl)amino)-2-(2,3,5-trichlorophenyl)oxazole-4-carbonitrile], the IC50 was over 20 µM and the Emax was 17%.

Take `N#Cc1nc(-c2cc(Cl)cc(Cl)c2Cl)oc1NCCOCCN1CCC(F)CC1` [Compound 80, 5-((2-(2-(4-Fluoropiperidin-1-yl)ethoxy)ethyl)amino)-2-(2,3,5-trichlorophenyl)oxazole-4-carbonitrile]: the IC50 is over 20 µM.

In the case of `N#Cc1nc(-c2cc(Cl)cc(Cl)c2Cl)oc1NCCOCCNc1ccccc1` [Compound 81, 5-((2-(2-(Phenylamino)ethoxy)ethyl)amino)-2-(2,3,5-trichlorophenyl)oxazole-4-carbonitrile], the IC50 was found to be 0.26 µM and the Emax came out at 95%.

As to `N#Cc1nc(-c2cc(Cl)cc(Cl)c2Cl)oc1NCCOCCOc1cncnc1` [Compound 82, 5-((2-(2-(Pyrimidin-5-yloxy)ethoxy)ethyl)amino)-2-(2,3,5-trichlorophenyl)oxazole-4-carbonitrile], the concentration for half-maximal inhibition (IC50) is 0.36 µM and the Emax came out at 82%.

For `Cc1cc(OCCOCCNc2oc(-c3cc(Cl)cc(Cl)c3Cl)nc2C#N)cc(C)n1` [Compound 83, 5-((2-(2-((2,6-Dimethylpyridin-4-yl)oxy)ethoxy)ethyl)amino)-2-(2,3,5-trichlorophenyl)oxazole-4-carbonitrile], the IC50 worked out at 0.18 µM and the Emax amounted to 61%.

As to `N#Cc1nc(-c2cc(Cl)cc(Cl)c2Cl)oc1NCCOCCOc1ccncc1F` [Compound 84, 5-((2-(2-((3-Fluoropyridin-4-yl)oxy)ethoxy)ethyl)amino)-2-(2,3,5-trichlorophenyl)oxazole-4-carbonitrile], the IC50 was determined as 0.49 µM and the Emax came to 68%.

For `COCCOc1ccc(COCC#CCNc2oc(-c3cc(Cl)cc(Cl)c3Cl)nc2C#N)cc1` [Compound 85], the Emax turned out to be 92%.

In the case of `N#Cc1nc(-c2cc(Cl)cc(Cl)c2Cl)oc1NCC#CCOCc1ccc(CCN2CCOCC2)cc1` [Compound 86], the Emax turned out to be 100%.

Take `N#Cc1nc(-c2cc(Cl)cc(Cl)c2Cl)oc1NCC#CCOCc1ccc(OCCN2CCOCC2)cc1` [Compound 87]: the Emax was 94%.

For the molecule `N#Cc1nc(-c2cc(Cl)cc(Cl)c2Cl)oc1NCC#CCOCc1ccncc1` [Compound 88, 5-((4-(Pyridin-4-ylmethoxy)but-2-yn-1-yl)amino)-2-(2,3,5-trichlorophenyl)oxazole-4-carbonitrile], inhibition was half-maximal at 0.081 µM (IC50) and the Emax was found to be 74%.

Consider `N#Cc1nc(-c2cc(Cl)cc(Cl)c2Cl)oc1NCC#CCOCc1ccc(C(=O)O)cc1` [Compound 89, 4-(((4-((4-Cyano-2-(2,3,5-trichlorophenyl)oxazol-5-yl)amino)but-2-yn-1-yl)oxy)methyl)benzoic acid], for which half-maximal inhibition (IC50) was put at 1.3 µM and the Emax came to 100%.

`CN(CCOCCNc1oc(-c2cc(Cl)cc(Cl)c2Cl)nc1C#N)c1ccncc1` [Compound 90, 5-((2-(2-(Methyl(pyridin-4-yl)amino)ethoxy)ethyl)amino)-2-(2,3,5-trichlorophenyl)oxazole-4-carbonitrile] yielded an IC50 of over 20 µM.

As to `N#Cc1nc(-c2cc(Cl)cc(Cl)c2Cl)oc1NCCOCCNc1ccncc1` [Compound 91, 5-((2-(2-(Pyridin-4-ylamino)ethoxy)ethyl)amino)-2-(2,3,5-trichlorophenyl)oxazole-4-carbonitrile], the IC50 is over 20 µM.

In the case of `N#Cc1nc(-c2cc(Cl)cc(Cl)c2Cl)oc1NCCOCCN1CCC(F)(F)C1` [Compound 92, 5-((2-(2-(3,3-Difluoropyrrolidin-1-yl)ethoxy)ethyl)amino)-2-(2,3,5-trichlorophenyl)oxazole-4-carbonitrile], half-maximal inhibition (IC50) required 8.8 µM and the Emax was 86%.
